Experimental data: patent US20050148598A1, “Trioxane derivatives” (priority 2001, published 2005)
Like-named read-outs stand apart in the source and are kept apart here.

Key:
MCF7 (Breast) = assay: NCI 3-cell line anticancer assay, MCF7; format: cell-based; details: 1.00E−04 Molar, 48 hours, sulforhodamine B
Protocol: (§1) The anticancer activity of these compounds of the present invention was also assessed, by NCI 3-cell line anticancer assay. In this protocol, each cell line is inoculated and preincubated on a microtiter plate. Test agents are then added at a single concentration and the culture incubated for 48 hours. End-point determinations are made with sulforhodamine B, a protein-binding dye. Results for each test agent are reported as the percentage of growth of the treated cells when compared to the untreated control cells. Compounds which reduce the growth of any one of the cells lines to 32% or less (negative numbers indicate cell kill) are passed on for evaluation in the full panel of 60 cell lines over a 5-log dose range.

NCI-H460 (Lung) = assay: NCI 3-cell line anticancer assay, NCI-H460; format: cell-based; details: 1.00E−04 Molar, 48 hours, sulforhodamine B
Protocol: as §1

[1] = test system: K1 strain of P. falciparum; assay: 48-h [3H]-hypoxanthine incorporation antimalarial sensitivity assay, K1 strain; format: cell-based
Protocol: (§2) The antimalarial activity of the new compounds was assessed using two strains of P. falciparum from Thailand: (a) the uncloned K1 strain which is known to be CQ resistant and (b) the HB3 strain which is sensitive to all antimalarials. Parasites were maintained in continuous culture using the method of Trager and Jenson (J. Parasitol., 1977, 63, 883-886). Cultures were grown in flasks containing human erythrocytes (2-5%) with parasitemia in the range of 1% to 10% suspended in RPMI 1640 medium supplemented with 25 mM HEPES and 32 mM NaHCO3, and 10% human serum (complete medium). Cultures were gassed with a mixture of 3% O2, 4% CO2 and 93% N2.
(§3) Antimalarial activity was assessed with an adaption of the 48-h sensitivity assay of Desjardins et al. (Antimicrob. Agents. Chemother., 1979, 16, 710-718) using [^3H]-hypoxanthine incorporation as an assessment of parasite growth. Stock drug solutions were prepared in 100% dimethylsulphoxide (DMSO) and diluted to the appropriate concentration using complete medium. Assays were performed in sterile 96-well microtitre plates, each plate containing 200 μl of parasite culture (2% parasitemia, 0.5% haematocrit) with or without 10 μl drug dilutions. Each drug was tested in triplicate and parasite growth was compared to control wells (which constituted 100% parasite growth). After 24-h incubation at 37° C., 0.5 μCi hypoxanthine was added to each well. Cultures were incubated for a further 24 h before they were harvested onto filter-mats, dried for 1 h at 55° C. and counted using a Wallac 1450 Microbeta Trilux Liquid scintillation and luminescence counter. IC50 values were calculated by interpolation of the probit transformation of the log dose—response curve.

SF-268 (CNS) = assay: NCI 3-cell line anticancer assay, SF-268; format: cell-based; details: 1.00E−04 Molar, 48 hours, sulforhodamine B
Protocol: as §1

[2] = test system: HB3 strain of P. falciparum; assay: 48-h [3H]-hypoxanthine incorporation antimalarial sensitivity assay, HB3 strain; format: cell-based; details: HB3 strain (sensitive) of P. falciparum in vitro
Protocol: as §2, §3

L1210 cells = details: cited from earlier work
[3] = K1 strain (CQ resistant) of P. falciparum in vitro, read-out: IC50
[4] = Plasmodium falciparum, K1 strain (CQ resistant) of P. falciparum in vitro, read-out: IC50

With `CC1CCC2C(C)C(OCc3cccc(CN4CCN(c5cccc(C(F)(F)F)c5)CC4)c3)OC3OC4(C)CCC1C32OO4` (stereo not drawn) [Compound 13i, 10β-[[3-[(3-Trifluoromethylphenylpiperazyl)methyl]benzyl]oxy]dihydroartemisinin] the “percentage of growth of the treated cells compared to untreated control cells, MCF7 (Breast)” value (“percentage of growth … (Breast)” for short) (MCF7 (Breast)) was 10%, the “percentage of growth of the treated cells compared to untreated control cells, NCI-H460 (Lung)” value (from here on “percentage of growth … (Lung)”) (NCI-H460 (Lung)) was 15% and the IC50 [1, 3] was 22.5 nM. The “percentage of growth of the treated cells compared to untreated control cells, SF-268 (CNS)” value (“percentage of growth … (CNS)” below) (SF-268 (CNS)) was 29%.

For `CC1CCC2C(C)C(OCc3cccc(CN4CCN(c5ccc(F)cc5)CC4)c3)OC3OC4(C)CCC1C32OO4` (stereo not drawn) [Compound 13j, 10β-[[3-[(4-Fluorophenylpiperazyl)methyl]benzyl]oxy]dihydroartemisinin], the IC50 [2] was 12.6 nM and the IC50 [1, 3] was 12.6 nM.

Work on `CC1CCC2C(C)C(OCc3cccc(CN4CCN(c5ccccc5)CC4)c3)OC3OC4(C)CCC1C32OO4` (stereo not drawn) [Compound 13f, 10β-[[3-[(Phenylpiperazyl)methyl]benzyl]oxy]dihydroartemisinin] yielded an IC50 [2] of 3.4 nM and an IC50 [1, 3] of 6.6 nM.

For `CCNCCCNCCCCNCCCNCC` [DESPM], the “cytotoxic effects in L1210 cells” value (L1210 cells) is listed as 0.2 µM.

In the case of `CC1CCC2C(C)C(OCc3ccc(CN4CCN(c5ccc(F)cc5)CC4)cc3)OC3OC4(C)CCC1C32OO4` (stereo not drawn) [Compound 13c, 10β-[[4-[(4-Fluorophenylpiperazyl)methyl]benzyl]oxy]dihydroartemisnin], the “percentage of growth … (Breast)” value (MCF7 (Breast)) is reported as 13%, the IC50 [2] is reported as 2.3 nM and the “percentage of growth … (Lung)” value (NCI-H460 (Lung)) is reported as 12%. For the same compound, the IC50 [1, 3] was 6.3 nM and the “percentage of growth … (CNS)” value (SF-268 (CNS)) was 27%.

“10β-[[4-[Phenylpiperazyl)methyl]benzyl]dihydroartemisinin [Compound 13a]” gave an IC50 [1, 3] of 8.2 nM.

Compound `CC1CCC2C(C)C(OCc3ccc(CN4CCN(c5ccc([N+](=O)[O-])cc5)CC4)cc3)OC3OC4(C)CCC1C32OO4` (stereo not shown) [Compound 13b] has an IC50 [1, 3] of 138 nM.

With `C[C@@H]1CCC2[C@@H](C)[C@@H](OCc3ccc(CN4CCN(Cc5ccccc5)CC4)cc3)OC3O[C@@]4(C)CC[C@@H]1[C@]32OO4` (stereo partly drawn) [Compound 13e, 10β-[[4-[(Benzylpiperazyl)methyl]benzyl]oxy]dihydroartemisinin] the IC50 ([2]; Plasmodium falciparum) was 1.8 nM and the IC50 [1, 4] was 3.8 nM.

For `CCNCCCNCCCNCCCNCC` [DENSPM], the “cytotoxic effects in L1210 cells” value (L1210 cells) is given as 1.3 µM.

`CO[C@H]1O[C@@H]2O[C@@]3(C)CC[C@H]4[C@H](C)CC[C@@H]([C@H]1C)[C@@]24OO3` [Artemether, artemether, reference compound] showed an IC50 ([2]; Plasmodium falciparum) of 9.2 nM and an IC50 [1, 4] of 6.5 nM.

For `CC1CCC2C(C)C(OCc3ccc(CN4CCN(c5ccc(C(F)(F)F)cc5)CC4)cc3)OC3OC4(C)CCC1C32OO4` (stereo not drawn) [Compound 13d, 10β-[[4-[(4-Trifluoromethylphenylpiperazyl)methyl]benzyl]oxy]dihydroartemisinin], the IC50 [2] was 8.1 nM and the IC50 [1, 3] was 12.5 nM.

In the case of `CCNCCCCNCCCCNCCCCNCC` [DEHSPM], the “cytotoxic effects in L1210 cells” value (L1210 cells) is given as 0.06 µM.

Compound `CC1CCC2C(C)C(OCc3cccc(CN4CCN(c5ccc([N+](=O)[O-])cc5)CC4)c3)OC3OC4(C)CCC1C32OO4` (stereo not drawn) [Compound 13g, 10β-[[3-[(4-Nitrophenylpiperazyl)methyl]benzyl]oxy]dihydroartemisinin] has an IC50 [2] of 4.3 nM and an IC50 [1, 3] of 4.3 nM.

In the case of `C[C@H]1[C@@H](OCc2cccc(CN3CCN(c4ccc(Cl)cc4)CC3)c2)O[C@@H]2O[C@@]3(C)CC[C@H]4[C@H](C)CC[C@@H]1[C@@]24OO3` [Compound 13h, 10β-[[3-[(4-Chlorophenylpiperazyl)methyl]benzyl]oxy]dihydroartemisinin], the “percentage of growth … (Breast)” value (MCF7 (Breast)) is reported as 11%, the “percentage of growth … (Lung)” value (NCI-H460 (Lung)) is reported as 22% and the IC50 [1, 3] is reported as 13.3 nM. For the same compound, the “percentage of growth … (CNS)” value (SF-268 (CNS)) was 31%.

With `CCN(CC)CCCC(C)Nc1ccnc2cc(Cl)ccc12` (stereo not shown) [Chloroquine, chloroquine, reference compound] the IC50 ([1]; Plasmodium falciparum, K1) was 255 nM.
